SMILES strings stand for the structures. Bounds are passed on as bounds.

For assay [1], the system named is substance P induced plasma extravasation. The assay is described as follows: Antagonism of substance P induced plasma extravasation in guinea-pigs. It counts as in vivo. Particulars: lowest active dose, female guinea-pigs; for LAD nose: compound 1 hour prior to substance P (2 mg/kg, femoral artery), blue colouring of nose 10 minutes after challenge; for LAD conjunctiva / LAD forepaws / LAD trachea / LAD urinary bladder: compound 1 hour prior to substance P; for LAD conjunctiva: blue colouring of conjunctiva 10 minutes after challenge; for LAD forepaws: blue colouring of forepaws 10 minutes after challenge; for LAD trachea: blue colouring of trachea 30 minutes after challenge; for LAD urinary bladder: blue colouring of urinary bladder 30 minutes after challenge. From the text: (§1) The compounds of the present invention are potent inhibitors of neurokinin-mediated effects, in particular those mediated via the NK1 receptor, and may therefore be described as tachykinin antagonists, especially as substance P antagonists, as indicated in vitro by the antagonism of substance P induced relaxation of pig coronary arteries which is described hereinafter. The binding affinity of the present compounds for the human, guinea-pig and gerbil neurokinin receptors may be determined in vitro in a receptor binding test using ^3H-substance-P as radioligand. The subject compounds also show substance-P antagonistic activity in vivo as may be evidenced by, for instance, the antagonism of substance P-induced plasma extravasation in guinea-pigs, or the antagonism of drug-induced emesis in ferrets (Watson et al., Br. J. Pharmacol. 115, 84-94, 1995).
Antagonism of substance P induced plasma extravasation in guinea-pigs
Plasma extravasation was induced by injection of substance P (2 mg/kg) in the femoral artery of female guinea-pigs. Evans Blue dye (30 mg/kg) was injected simultaneously. The test compound or solvent was administered 1 hour prior to substance P injection. 10 minutes after challenge, the aminals were checked for blue colouring (a direct measure for plasma extravasation) of the nose, the forepaws, and the conjectiva. 30 minutes after challenge, the animals were sacrificed by CO2 gas inhalation and checked for blue colouring of the trachea and the urinary bladder. […]

Assay [2] deals with substance-P induced relaxation of the pig coronary arteries. The assay is described as follows: Antagonism of substance-P induced relaxation of the pig coronary arteries. It counts as cell-based. The note with it: concentration at which 50% of the response to 10^−9 M substance P was inhibited; 30 minutes incubation; prostaglandin F2a precontracted segments.
Source text: as §1
Antagonism of substance-P induced relaxation of the pig coronary arteries
Segments of coronary artieries taken from pigs (killed by injection of an overdose of sodium pentobarbital) were inverted and mounted for recordign of isometric tension in organ baths (volume 20 ml) with the endothelium at the outside. The preparations were bathed in Krebs-Henseleit solution. The solution was kept at 37° C. and gassed with a mixture of O2/CO2 (95/5). After stabilisation of the preparations, prostaglandin F2a (10^−5 M) was administered to induce a contraction. This was repeated until contractivle responses became stable. Then prostaglandin F2a was again administered and substance P(3×10^−10 M and 10^−9 M cumulatively) was added. Substance P induced endothelium dependent relaxations. After washing away the agonists, a known concentratin of a compound of formula (I) was added. After an incubation period of 30 minutes, prostaglandin F2a ([…]) and the same concentrations of sbustance P as described above were again administered in the presence of the compound to be tested. Relaxations caused by substance P were expressed as relaxations under control conditions, and percent inhibition of the response to […] substance P was taken as a measure of the antagonistic activity of the compound to be tested. Table 6 lists the IC50 values (concentration at which 50% of the response to […] substance P was inhibited by the test compound) for the tested compounds.

On to `O=C(c1ccco1)N1CCN(C2CCN(C(=O)c3cc(C(F)(F)F)cc(C(F)(F)F)c3)C(Cc3ccccc3)C2)CC1` (stereo not shown) [Compound 21], for which, in assay [1], the LAD nose stood at 10.0 mg/kg, the LAD conjunctiva stood at 10.0 mg/kg, the LAD forepaws was 10.0 mg/kg and the LAD trachea is on record as >40 mg/kg. This molecule also came in with an LAD urinary bladder in assay [1] of 10.0 mg/kg.

Regarding `O=C(CN1CCN(C2CCN(C(=O)c3cc(C(F)(F)F)cc(C(F)(F)F)c3)C(Cc3ccccc3)C2)CC1)N1Cc2ccccc2C1` (racemic) [Compound 122], the IC50 in assay [2] worked out at 1.68 nM.

With `Cc1cccc(C)c1NC(=O)CN1CCCN(C2CCN(C(=O)c3cc(C(F)(F)F)cc(C(F)(F)F)c3)C(Cc3ccccc3)C2)CC1` (racemic) [Compound 65], half-maximal inhibition in assay [2] (IC50) was put at 6.39 nM.

As to `Cc1cc(C)cc(C(=O)N2CCC(N3CCN(C(c4ccccc4)c4ccccc4)CC3)CC2Cc2ccccc2)c1` (racemic) [Compound 12], in assay [1], the LAD nose is recorded as >40.0 mg/kg, the LAD conjunctiva is listed as >40.0 mg/kg, the LAD forepaws is reported as >40.0 mg/kg and the LAD trachea is recorded as >40 mg/kg. The LAD urinary bladder in assay [1] stood at 40.0 mg/kg.

`O=C(CN1CCN(C2CCN(C(=O)c3cc(C(F)(F)F)cc(C(F)(F)F)c3)C(Cc3ccccc3)C2)CC1)Nc1ccccc1` (stereo not shown) [Compound 37]: in assay [2], the IC50 stood at 9.6 nM.

`CC(=O)NCC(c1ccccc1)N1CCN(C2CCN(C(=O)c3cc(C(F)(F)F)cc(C(F)(F)F)c3)C(Cc3ccccc3)C2)CC1` (racemic) [Compound 83]: in assay [1], the LAD nose amounted to 0.63 mg/kg, the LAD conjunctiva is on record as 2.50 mg/kg, the LAD forepaws is 0.63 mg/kg and the LAD trachea is reported as >40 mg/kg. This molecule also came in with an LAD urinary bladder in assay [1] of 0.63 mg/kg.

As to `O=C(c1cc(C(F)(F)F)cc(C(F)(F)F)c1)N1CCC(N2CCN(CC=Cc3ccccc3)CC2)CC1Cc1ccccc1` (stereo not shown) [Compound 29], the half-maximal inhibitory concentration (IC50) in assay [2] turned out to be 0.45 nM.

In the case of `O=C(c1cc(C(F)(F)F)cc(C(F)(F)F)c1)N1CCC(N2CCN(C(c3ccc(F)cc3)c3ccc(F)cc3)CC2)CC1Cc1ccccc1` (stereo not shown) [Compound 36], the IC50 in assay [2] was 2.31 nM.

In assay [2], `O=C(c1cc(C(F)(F)F)cc(C(F)(F)F)c1)N1CCC(N2CCN(C(c3ccc(F)cc3)c3ccc(F)cc3)CC2)CC1Cc1ccccc1` (stereo not shown) [Compound 35] displayed an IC50 of 17 nM.

With `CCn1nnn(CCN2CCN(C3CCN(C(=O)c4cc(C(F)(F)F)cc(C(F)(F)F)c4)C(Cc4ccccc4)C3)CC2)c1=O.O=C(O)C=CC(=O)O.O=C(O)C=CC(=O)O` (racemic) [Compound 96], in assay [1], the LAD nose was 10.0 mg/kg, the LAD conjunctiva was determined as 10.0 mg/kg, the LAD forepaws came out at 10.0 mg/kg and the LAD trachea was >40 mg/kg. For the same molecule, the LAD urinary bladder in assay [1] is reported as >40 mg/kg.

Consider `Cc1cc(C)cc(C(=O)N2CCC(N3CCN(CC=Cc4ccccc4)CC3)CC2Cc2ccccc2)c1` (stereo not shown) [Compound 8], for which, in assay [1], the LAD nose came out at 10.0 mg/kg, the LAD conjunctiva stood at 10.0 mg/kg, the LAD forepaws came out at 10.0 mg/kg and the LAD trachea is >40 mg/kg. In assay [1], the LAD urinary bladder is on record as >40 mg/kg.

`O=C(CN1CCN(C2CCN(C(=O)c3cc(C(F)(F)F)cc(C(F)(F)F)c3)C(Cc3ccccc3)C2)CC1)N1Cc2ccccc2C1` (racemic) [Compound 121] had an IC50 in assay [2] of 2.77 nM. In other words, the single-digit nanomolar range.

On to `NC(=O)c1cc(Cl)c(NC(=O)CN2CCN([C@@H]3CCN(C(=O)c4cc(C(F)(F)F)cc(C(F)(F)F)c4)[C@@H](Cc4ccccc4)C3)CC2)c(Cl)c1` (racemic) [Compound 74], for which, in assay [1], the LAD nose is listed as 10.0 mg/kg, the LAD conjunctiva stood at 10.0 mg/kg, the LAD forepaws was determined as 10.0 mg/kg and the LAD trachea was >40 mg/kg. Also, the LAD urinary bladder in assay [1] is reported as >40 mg/kg.

Molecule `O=C(CN1CCN(C2CCN(C(=O)c3cc(C(F)(F)F)cc(C(F)(F)F)c3)C(Cc3ccccc3)C2)CC1)Nc1nccn1Cc1ccccc1` (racemic) [Compound 97] registered an IC50 in assay [2] of 1.58 nM.

For `Cc1cccc(C)c1NC(=O)CCN1CCN(C2CCN(C(=O)c3cc(C(F)(F)F)cc(C(F)(F)F)c3)C(Cc3ccccc3)C2)CC1.O=C(O)C=CC(=O)O.O=C(O)C=CC(=O)O` (racemic) [Compound 103], in assay [1], the LAD nose was 2.50 mg/kg, the LAD conjunctiva was 2.50 mg/kg, the LAD forepaws stood at 2.50 mg/kg and the LAD trachea came out at 10.0 mg/kg. Moreover, the LAD urinary bladder in assay [1] is listed as 2.50 mg/kg.

On to `Cc1cccc(C)c1NC(=O)CN1CCN(C2CCN(C(=O)c3cc(C(F)(F)F)cc(C(F)(F)F)c3)C(Cc3ccccc3)C2)CC1` (racemic) [Compound 58], for which 0.24 nM corresponded to half-maximal inhibition in assay [2] (IC50).

In turn, `Cc1cccc(C)c1NC(=O)C(c1ccccc1)N1CCN(C2CCN(C(=O)c3cc(C(F)(F)F)cc(C(F)(F)F)c3)C(Cc3ccccc3)C2)CC1` (racemic) [Compound 102] had an IC50 in assay [2] of 1.85 nM.

`Cc1ncc(Cn2c(N3CCN(C4CCN(C(=O)c5cc(C(F)(F)F)cc(C(F)(F)F)c5)C(Cc5ccccc5)C4)CC3)nc3ccccc32)o1` (stereo not shown) [Compound 23]: in assay [1], the LAD nose is on record as 10.0 mg/kg, the LAD conjunctiva turned out to be 40.0 mg/kg, the LAD forepaws was 10.0 mg/kg and the LAD trachea is >40 mg/kg. Besides, the LAD urinary bladder in assay [1] was >40 mg/kg.

The molecule `O=C(c1cc(C(F)(F)F)cc(C(F)(F)F)c1)N1CCC(N2CCN(C(c3ccccc3)c3ccccc3)CC2)CC1Cc1ccccc1` (stereo not shown) [Compound 55] returned an IC50 in assay [2] of 2.8 nM.

`O=C(c1cc(C(F)(F)F)cc(C(F)(F)F)c1)N1CCC(N2CCN(CC(O)c3ccccc3)CC2)CC1Cc1ccccc1` (racemic) [Compound 86] registered an IC50 in assay [2] of 2.13 nM.

In turn, `O=C(c1cc(C(F)(F)F)cc(C(F)(F)F)c1)N1CCC(N2CCN(CCc3ccccc3)CC2)CC1Cc1ccccc1` (stereo not shown) [Compound 44] returned an IC50 in assay [2] of 8.34 nM.

For the molecule `O=C(c1cc(C(F)(F)F)cc(C(F)(F)F)c1)N1CCC(N2CCCN(Cc3ccccc3)CC2)CC1Cc1ccccc1` (racemic) [Compound 63], it took 8.38 nM to reach half-maximal inhibition in assay [2] (IC50).

With `COc1ccccc1NC(=O)CN1CCN(C2CCN(C(=O)c3cc(C(F)(F)F)cc(C(F)(F)F)c3)C(Cc3ccccc3)C2)CC1` (stereo not shown) [Compound 51], half-maximal inhibition in assay [2] (IC50) required 1.35 nM.

In assay [2], `CN(CC(CCN1CCN(C2CCN(C(=O)c3cc(C(F)(F)F)cc(C(F)(F)F)c3)C(Cc3ccccc3)C2)CC1)c1ccc(Cl)c(Cl)c1)C(=O)c1ccccc1` (racemic) [Compound 92] registered an IC50 of 0.78 nM.

`CC(=O)NCC(c1ccccc1)N1CCN(C2CCN(C(=O)c3cc(C(F)(F)F)cc(C(F)(F)F)c3)C(Cc3ccccc3)C2)CC1` (racemic) [Compound 82]: in assay [1], the LAD nose stood at 2.50 mg/kg, the LAD conjunctiva was 2.50 mg/kg, the LAD forepaws is on record as 2.50 mg/kg and the LAD trachea came to 10.0 mg/kg. The LAD urinary bladder in assay [1] was >40 mg/kg.

In the case of `O=C(c1cc(C(F)(F)F)cc(C(F)(F)F)c1)N1CCC(N2CCN(c3nc4ccccc4[nH]3)CC2)CC1Cc1ccccc1` (racemic) [Compound 40], in assay [1], the LAD nose was found to be 10.0 mg/kg, the LAD conjunctiva is listed as 10.0 mg/kg, the LAD forepaws was 10.0 mg/kg and the LAD trachea was >40 mg/kg. Also, the LAD urinary bladder in assay [1] was >40 mg/kg.

As for `O=C(O)C=CC(=O)O.O=C(O)C=CC(=O)O.O=C(c1cc(C(F)(F)F)cc(C(F)(F)F)c1)N1CCC(N2CCN(CCc3ccccc3)CC2)CC1Cc1ccccc1` (racemic) [Compound 90], in assay [1], the LAD nose amounted to 10.0 mg/kg, the LAD conjunctiva was found to be 10.0 mg/kg, the LAD forepaws is listed as 10.0 mg/kg and the LAD trachea stood at 10.0 mg/kg. Moreover, the LAD urinary bladder in assay [1] is >40 mg/kg.

On to `Cc1cc(C)cc(NC(=O)CN2CCN(C3CCN(C(=O)c4cc(C(F)(F)F)cc(C(F)(F)F)c4)C(Cc4ccccc4)C3)CC2)c1` (racemic) [Compound 47], for which, in assay [1], the LAD nose was 40.0 mg/kg, the LAD conjunctiva is 40.0 mg/kg, the LAD forepaws worked out at 40.0 mg/kg and the LAD trachea is >40 mg/kg. For the same molecule, the LAD urinary bladder in assay [1] is >40 mg/kg.

The IC50 is the point on the concentration scale where inhibition reaches its midpoint. A lower IC50 goes with higher potency.
